{"source": "ChEMBL document CHEMBL5038645", "about": "“Discovery of Mycobacterium tuberculosis Rv3364c-Derived Small Molecules as Potential Therapeutic Agents to Target SNX9 for Sepsis” (J Med Chem, 2022)", "type_in_all_cases": "functional", "key": {"Escherichia coli": {"system": "Escherichia coli", "experiment": "Antibacterial activity against Escherichia coli ATCC 12701 assessed as bacterial clearance incubated for 6 to 24 hrs by microbroth dilution method", "details": "time 6-24 hrs"}, "Staphylococcus aureus": {"system": "Staphylococcus aureus", "experiment": "Antibacterial activity against Staphylococcus aureus ATCC 6538 assessed as bacterial clearance incubated for 6 to 24 hrs by microbroth dilution method", "details": "time 6-24 hrs"}, "Pseudomonas aeruginosa": {"system": "Pseudomonas aeruginosa", "experiment": "Antibacterial activity against Pseudomonas aeruginosa ATCC 10145 assessed as bacterial clearance incubated for 6 to 24 hrs by microbroth dilution method", "details": "time 6-24 hrs"}, "[1]": {"experiment": "Antiinflammatory activity in […] cells assessed as reduction in LPS-induced TNF-alpha release at 10 uM pre incubated for 1 hr followed by LPS stimulation and measured after 30 mins by ELISA"}, "[2]": {"experiment": "Antiinflammatory activity in […] cells assessed as reduction in LPS-induced NOX release at 10 uM pre incubated for 1 hr followed by LPS stimulation and measured after 30 mins by ELISA"}, "[3]": {"experiment": "Antiinflammatory activity in […] cells assessed as reduction in LPS-induced IL-6 release at 10 uM pre incubated for 1 hr followed by LPS stimulation and measured after 30 mins by ELISA"}}, "data": [{"compound": "Cc1onc(-c2ccccc2)c1C(=O)N[C@@H]1C(=O)N2[C@@H]1SC(C)(C)[C@@H]2C(=O)O", "note": "[OXACILLIN]", "values": [{"measurement": "MIC80", "setting": "Escherichia coli", "value": 0.25, "unit": "µg/mL"}, {"measurement": "MIC80", "setting": "Staphylococcus aureus", "value": 0.06, "unit": "µg/mL"}, {"measurement": "MIC80", "setting": "Pseudomonas aeruginosa", "value": 1.98, "unit": "µg/mL"}]}, {"compound": "CC(C)(C)c1ccc(-c2nc(NCCOCCOCCN)nc(NCc3ccccc3)n2)cc1", "values": [{"measurement": "inhibition at 10 µM", "setting": "[1]", "value": 10.7, "unit": "%"}, {"measurement": "inhibition at 10 µM", "setting": "[2]", "value": 38.5, "unit": "%"}, {"measurement": "inhibition at 10 µM", "setting": "[3]", "value": 50, "unit": "%"}]}, {"compound": "CC(C)(C)c1ccc(-c2nc(NCCOCCOCCN)nc(NCc3ccc(Cl)cc3)n2)cc1", "values": [{"measurement": "inhibition at 10 µM", "setting": "[1]", "value": 15.2, "unit": "%"}, {"measurement": "inhibition at 10 µM", "setting": "[2]", "value": 38.4, "unit": "%"}, {"measurement": "inhibition at 10 µM", "setting": "[3]", "value": 50, "unit": "%"}]}, {"compound": "CC(C)(C)c1ccc(-c2nc(NCCOCCOCCN)nc(NCCc3ccccc3)n2)cc1", "values": [{"measurement": "inhibition at 10 µM", "setting": "[1]", "value": 25.3, "unit": "%"}, {"measurement": "inhibition at 10 µM", "setting": "[2]", "value": 23, "unit": "%"}, {"measurement": "inhibition at 10 µM", "setting": "[3]", "value": 40.2, "unit": "%"}]}, {"compound": "NCCOCCOCCNc1nc(NCC2CCCO2)nc(-c2ccc(C(F)(F)F)cc2)n1", "note": "(configuration not stated)", "values": [{"measurement": "inhibition at 10 µM", "setting": "[1]", "value": 10.1, "unit": "%"}, {"measurement": "inhibition at 10 µM", "setting": "[2]", "value": 46.1, "unit": "%"}, {"measurement": "inhibition at 10 µM", "setting": "[3]", "value": 23.4, "unit": "%"}]}, {"compound": "CC(C)(C)c1ccc(CNc2nc(NCCOCCOCCN)nc(-c3ccc(C(C)(C)C)cc3)n2)cc1", "values": [{"measurement": "inhibition at 10 µM", "setting": "[1]", "value": 55.2, "unit": "%"}, {"measurement": "inhibition at 10 µM", "setting": "[2]", "value": 38.4, "unit": "%"}, {"measurement": "inhibition at 10 µM", "setting": "[3]", "value": 46.7, "unit": "%"}]}, {"compound": "Cc1ccc(-c2nc(NCCOCCOCCN)nc(NCC3CCCO3)n2)cc1", "note": "(configuration not stated)", "values": [{"measurement": "inhibition at 10 µM", "setting": "[1]", "value": 50.1, "unit": "%"}, {"measurement": "inhibition at 10 µM", "setting": "[2]", "value": 40, "unit": "%"}, {"measurement": "inhibition at 10 µM", "setting": "[3]", "value": 50, "unit": "%"}]}, {"compound": "NCCOCCOCCNc1nc(NCC2CCCO2)nc(-c2ccc(OC(F)(F)F)cc2)n1", "note": "(configuration not stated)", "values": [{"measurement": "inhibition at 10 µM", "setting": "[1]", "value": 10.9, "unit": "%"}, {"measurement": "inhibition at 10 µM", "setting": "[2]", "value": 38.4, "unit": "%"}, {"measurement": "inhibition at 10 µM", "setting": "[3]", "value": 16.7, "unit": "%"}]}, {"compound": "C=CCNc1nc(NCCOCCOCCN)nc(-c2ccc(C(C)(C)C)cc2)n1", "values": [{"measurement": "inhibition at 10 µM", "setting": "[1]", "value": 23.4, "unit": "%"}, {"measurement": "inhibition at 10 µM", "setting": "[2]", "value": 29.2, "unit": "%"}, {"measurement": "inhibition at 10 µM", "setting": "[3]", "value": 32.6, "unit": "%"}]}, {"compound": "CC(C)(C)c1ccc(-c2nc(NCCOCCOCCN)nc(NCC3CCCCO3)n2)cc1", "note": "(configuration not stated)", "values": [{"measurement": "inhibition at 10 µM", "setting": "[1]", "value": 10.4, "unit": "%"}, {"measurement": "inhibition at 10 µM", "setting": "[2]", "value": 46.1, "unit": "%"}, {"measurement": "inhibition at 10 µM", "setting": "[3]", "value": 56.7, "unit": "%"}]}, {"compound": "CC(C)(C)c1ccc(-c2nc(NCCOCCOCCN)nc(NCc3cccc(Cl)c3)n2)cc1", "values": [{"measurement": "inhibition at 10 µM", "setting": "[1]", "value": 50.1, "unit": "%"}, {"measurement": "inhibition at 10 µM", "setting": "[2]", "value": 41.5, "unit": "%"}, {"measurement": "inhibition at 10 µM", "setting": "[3]", "value": 43.3, "unit": "%"}]}, {"compound": "Cc1cccc(CNc2nc(NCCOCCOCCN)nc(-c3ccc(C(C)(C)C)cc3)n2)c1", "values": [{"measurement": "inhibition at 10 µM", "setting": "[1]", "value": 25.3, "unit": "%"}, {"measurement": "inhibition at 10 µM", "setting": "[2]", "value": 41.6, "unit": "%"}, {"measurement": "inhibition at 10 µM", "setting": "[3]", "value": 56.7, "unit": "%"}]}, {"compound": "GENTAMICIN", "values": [{"measurement": "MIC=>80", "setting": "Escherichia coli", "value": 0.99, "unit": "µg/mL"}, {"measurement": "MIC=>80", "setting": "Staphylococcus aureus", "value": 0.5, "unit": "µg/mL"}, {"measurement": "MIC=>80", "setting": "Pseudomonas aeruginosa", "value": 7.94, "unit": "µg/mL"}]}, {"compound": "CC(C)(C)c1ccc(-c2nc(NCCOCCOCCOCCN)nc(NCC3CCCO3)n2)cc1", "note": "(configuration not stated)", "values": [{"measurement": "inhibition at 10 µM", "setting": "[1]", "value": 13.4, "unit": "%"}, {"measurement": "inhibition at 10 µM", "setting": "[2]", "value": 19.5, "unit": "%"}, {"measurement": "inhibition at 10 µM", "setting": "[3]", "value": 22.2, "unit": "%"}]}]}
